The values that follow come from PMC6270338, “Diterpenylquinone Hybrids: Synthesis and Assessment of Gastroprotective Mechanisms of Action in Human Cells” (Molecules, 2013).

Broadly, the IC50 is the concentration that inhibits the measured activity by half.

Data set [1] in a line: Cytotoxicity, neutral red uptake assay, MRC-5. Type of data set: cell-based. The settings on record: human, MRC-5 lung fibroblasts, confluent monolayer, confluent MRC-5, 24 h, read-out: IC50 ± SD, cytotoxicity MRC-5. How it is done:
(§1) Human lung fibroblasts MRC-5 (ATCC CCL-171) were grown in minimum essential Eagle medium (MEM) with Earles’s salts and 2 mM L-glutamine (Sigma-Aldrich Co.). Human epithelial gastric cells AGS (ATCC CRL-1739) were grown in Ham F-12 medium containing 1 mM L-glutamine. Both media were supplemented with 1.5 g/L sodium bicarbonate (Sigma-Aldrich Co.), 10% heat-inactivated fetal bovine serum (FBS), 100 IU/mL penicillin and 100 µg/mL streptomycin.Both cell lines were grown as monolayers in a humidified incubator with 5% CO2 in air at 37 °C. Culture media, antibiotics and FBS were obtained from Invitrogen Corp.
(§2) Cytotoxicity values were required as a reference to determine the working concentrations in the subsequent experiments. Briefly, confluent cultures of MRC-5 and AGS cells were treated during 24 h with medium containing the compounds at concentrations ranging from 0 up to 1,000 µM. The products were first dissolved in DMSO (1% final concentration) and then in the corresponding culture medium supplemented with 2% FBS. Untreated cells were used as controls. Cell viability was determined at the end of the incubation by means of the neutral red uptake (NRU) assay. Lansoprazole (Sigma-Aldrich Co., min. 98% by TLC) was used as reference compound.

A short description of data set [2]: Cytotoxicity, neutral red uptake assay, AGS. It is filed as cell-based. The following applies: human, AGS gastric epithelial cells, confluent monolayer, read-out: IC50 ± SD, cytotoxicity AGS. How it is done:
as §1, §2

The subject of data set [3] is AGS cells. The data set can be described thus: Cellular reduced glutathione (GSH) content of AGS cells. It is filed as cell-based, human. The settings on record: 4 h; for GSH: post-confluent AGS, control 13.6 ± 0.7. How it is done: Untreated cells were used as controls. […] After incubation, the GSH content was determined using a colorimetric kit (BioAssays Systems, Hayward, CA, USA). Results are expressed as nanomol of soluble reduced sulfhydryls/10^6 cells.

In data set [4] the test system is human erythrocyte membranes. The data set can be described thus: Inhibition of lipoperoxidation in erythrocyte membranes. It is filed as biochemical. The settings on record: at 100 µg/mL. The protocol: The inhibition of lipid peroxidation was determined using human erythrocyte membranes. The compounds were tested at 100 µg/mL.
For data set [5], the system named is human erythrocyte membranes. The description is as above. It is filed as biochemical.
In data set [6] the test system is AGS cells. In words: Sodium taurocholate (NaT)-induced damage to AGS cells. It is filed as cell-based, human. The following applies: 60 min pre-treatment, then 10 mM NaT 30 min. How it is done:
The effect of sodium taurocholate (NaT) on cell viability was determined according to [15]. […] Then, 10 mM NaT was added to all wells for 30 min. Untreated cells were used as controls. […] After incubation, the NRU assay was carried out.

The test system of data set [7] is AGS cells. The data set can be described thus: Prostaglandin E2 (PGE2) content of AGS cells. It is filed as cell-based, human. The following applies: 1 h; for PGE2: post-confluent AGS, control 52 ± 5. How it is done:
One day after confluence, AGS cells were treated for 1 h with the compounds at 1/2 and 1/4 of the respective IC50 values. A control with medium only was included. Indomethacin (100 μM) was used as standard inhibitor of prostaglandin synthesis (Sigma-Aldrich Co., min. 99% by TLC). After incubation, PGE2 content was determined by means of a specific enzyme immunoassay kit (R & D Systems KGE004B, Minneapolis, MN, USA) and values were calculated according to the manufacturer instructions. Results are expressed as pg/well.

`CC(CCC1C(C)CCC2C(C)(C(=O)O)CCCC12C)CC(=O)O` (stereo not drawn) [Compound 6, 17β-Dihydrojunicedric acid]: the IC50 at 24 h in data set [1] amounted to 163 ± 5 µM; in data set [2] it was 283 ± 17 µM. Also, the activation at 37 µM in the data set with AGS cells [3] (Homo sapiens, AGS, 37 µM, read-out: increase of GSH content compared to untreated controls) is 43%. For the same compound, the activation at 71 µM in the data set with AGS cells [3] (Homo sapiens, AGS, 71 µM, read-out: increase of GSH content compared to untreated controls) is 60%. The values for the GSH result in the data set with AGS cells [3] (37 µM) and with AGS cells [3] (71 µM) were “* 19.5 ± 0.9 nmol/10^6 cells” and “** 21.7 ± 1.3 nmol/10^6 cells”, respectively. Also, the “% Inhibition of the lipoperoxidation” value in data set [4] was 30%.
Take `CC(=O)N[C@@H](CS)C(=O)O` [NAC, N-acetyl-L-cysteine, reference compound]: in the data set on AGS cells [3] (Homo sapiens, AGS, 750 µM, read-out: increase of GSH content compared to untreated controls), the activation at 750 µM came out at 30%. The GSH result with AGS cells [3] (750 µM) is “* 17.7 ± 1.4 nmol/10^6 cells”.
In the case of `Cc1c(OCC(F)(F)F)ccnc1C[S+]([O-])c1nc2ccccc2[nH]1` (stereo not shown) [Lansoprazole, reference compound], the figures for the IC50 at 24 h in data set [1] and in data set [2] were 316 ± 11 µM and 168 ± 8 µM, respectively.
Turning to `CC(C)=CCC1=C(OC(=O)C[C@H](C)CC[C@H]2[C@@H](C)CCC3[C@]2(C)CCC[C@]3(C)C(=O)O)C(=O)C2=C(CCCC2)C1=O` (stereo partly drawn) [Compound 17, Dihydroprenyl-5,6,7,8-tetrahydrolapachoyl 17β-dihydrojunicedrate], the IC50 at 24 h in data set [1] was 44 ± 4 µM; in data set [2], 60 ± 5 µM. Further, in the data set on AGS cells [3] (Homo sapiens, AGS, 7.5 µM, read-out: increase of GSH content compared to untreated controls), the activation at 7.5 µM worked out at 89%. For the same compound, the activation at 15 µM in the data set on AGS cells [3] (Homo sapiens, AGS, 15 µM, read-out: increase of GSH content compared to untreated controls) stood at 51%. For the same compound, the GSH entry was “** 25.8 ± 1.6 nmol/10^6 cells” with AGS cells [3] (7.5 µM) and “** 20.5 ± 1.0 nmol/10^6 cells” in the data set on AGS cells [3] (15 µM). In data set [4], the “% Inhibition of the lipoperoxidation” value worked out at 48%.
`COC(=O)[C@@]1(C)CCC[C@@]2(C)C1CC[C@H](C)[C@@H]2CC[C@@H](C)CC(=O)OC1=C(CC=C(C)C)C(=O)c2ccccc2C1=O` (stereo partly drawn) [Compound 14, Lapachoyl 17β-dihydrojunicedrate methyl ester]: the “IC50, inhibition of the lipoperoxidation” value in data set [5] is “IC50 19.7 ± 1.4 µg/mL”. Moreover, the IC50 at 24 h in data set [1] worked out at 727 ± 48 µM; in data set [2], 916 ± 54 µM. Besides, the GSH in the data set on AGS cells [3] (115 µM) was determined as 14.4 ± 0.5 nmol/10^6 cells; in the data set on AGS cells [3] (229 µM), 12.7 ± 0.4 nmol/10^6 cells.
For the compound `C=C1CCC2[C@](C)(CCC[C@]2(C)C(=O)O)[C@H]1CC[C@@H](C)CC(=O)O` (stereo partly shown) [Compound 4, Junicedric acid], the IC50 at 24 h in data set [1] came to 439 ± 26 µM; in data set [2], 383 ± 23 µM. Further, the GSH result in the data set with AGS cells [3] (48 µM) is recorded as “* 18.4 ± 1.1 nmol/10^6 cells”; in the data set on AGS cells [3] (96 µM), “* 17.2 ± 1.0 nmol/10^6 cells”. For the same compound, the “% Inhibition of the lipoperoxidation” value in data set [4] is given as 25%.
For the compound `CC(C)CCC1=C(O)C(=O)c2ccccc2C1=O` [Compound 2, Dihydroprenyl lapachol], the figures for the “reduction in cell viability, NaT-induced damage” value (shortened to “reduction in cell viability”) in the data set with AGS cells [6] (37 µM), in the data set with AGS cells [6] (73 µM) and in the data set with AGS cells [6] (146 µM) were 23%, 23% and 27%, respectively. For the same compound, in data set [5], the “IC50, inhibition of the lipoperoxidation” value is reported as “IC50 25.4 ± 2.4 µg/mL”. For the same compound, the IC50 at 24 h was 611 ± 42 µM in data set [1] and 292 ± 12 µM in data set [2]. The results for the GSH in the data set with AGS cells [3] (37 µM) and with AGS cells [3] (73 µM) were 13.6 ± 0.7 nmol/10^6 cells and 13.8 ± 0.7 nmol/10^6 cells, respectively.
As for Sucralfate [reference compound], in the data set with AGS cells [6] (4 mg/mL (580 µM)), the “reduction in cell viability” value turned out to be 35%.
With `COc1ccc2c(c1)c(CC(=O)O)c(C)n2C(=O)c1ccc(Cl)cc1` [Indomethacin, reference compound], in the data set on AGS cells [7] (100 µM), the PGE2 result was “Not detected”.
With `CC(C)CCC1=C(OC(=O)C[C@H](C)CC[C@H]2[C@@H](C)CCC3[C@]2(C)CCC[C@]3(C)C(=O)O)C(=O)c2ccccc2C1=O` (stereo partly drawn) [Compound 15, Dihydroprenyl lapachol 17β-dihydrojunicedrate], the entries for the “reduction in cell viability” value in the data set on AGS cells [6] (125 µM), in the data set with AGS cells [6] (250 µM) and in the data set on AGS cells [6] (500 µM) were 27%, 27% and 21%, respectively. Moreover, in data set [5], the “IC50, inhibition of the lipoperoxidation” value is “IC50 25.3 ± 4.1 µg/mL”. In addition, the fold induction at 250 µM in the data set with AGS cells [7] (Homo sapiens, AGS, 250 µM, read-out: increase in PGE2 content) was 5.4. Further, in the data set on AGS cells [7] (Homo sapiens, AGS, 500 µM, read-out: increase in PGE2 content), the fold induction at 500 µM turned out to be 7.2. In addition, the PGE2 was determined as 279 ± 20 pg/mL in the data set on AGS cells [7] (250 µM) and 372 ± 25 pg/mL with AGS cells [7] (500 µM). In addition, the IC50 at 24 h in data set [1] and in data set [2] was above 1000 µM in each case. The activation at 125 µM in the data set with AGS cells [3] (Homo sapiens, AGS, 125 µM, read-out: increase of GSH content compared to untreated controls) is 31%. The activation at 250 µM in the data set with AGS cells [3] (Homo sapiens, AGS, 250 µM, read-out: increase of GSH content compared to untreated controls) was 35%. Further, the results for the GSH result in the data set on AGS cells [3] (125 µM) and in the data set on AGS cells [3] (250 µM) were “* 17.8 ± 0.9 nmol/10^6 cells” and “* 18.4 ± 1.2 nmol/10^6 cells”, respectively.
`O.Oc1cc(O)c2c(c1)O[C@H](c1ccc(O)c(O)c1)[C@@H](O)C2` [Catechin, reference compound]: the “IC50, inhibition of the lipoperoxidation” value in data set [5] is recorded as “IC50 75.4 ± 6.0 µg/mL”.
In the case of `C=C1CCC2[C@](C)(CCC[C@]2(C)C(=O)OC)[C@H]1CC[C@@H](C)CC(=O)OC1=C(CCC(C)C)C(=O)C2=C(CCCC2)C1=O` (stereo partly shown) [Compound 12, Dihydroprenyl-5,6,7,8-tetrahydrolapachoyl junicedrate methyl ester], the figures for the IC50 at 24 h in data set [1] and in data set [2] were 667 ± 40 µM and above 1000 µM, respectively. The GSH worked out at 13.7 ± 1.0 nmol/10^6 cells with AGS cells [3] (125 µM) and 13.9 ± 0.8 nmol/10^6 cells in the data set with AGS cells [3] (250 µM). The “% Inhibition of the lipoperoxidation” value in data set [4] was 37%.
With `C=C1CCC2[C@](C)(CCC[C@]2(C)C(=O)O)[C@H]1CC[C@@H](C)CC(=O)OC1=C(CC=C(C)C)C(=O)c2ccccc2C1=O` (stereo partly shown) [Compound 7, Lapachoyl junicedrate], the IC50 at 24 h worked out at 221 ± 13 µM in data set [1] and 143 ± 6 µM in data set [2]. Further, in the data set on AGS cells [3] (Homo sapiens, AGS, 18 µM, read-out: increase of GSH content compared to untreated controls), the activation at 18 µM worked out at 18%. The activation at 36 µM in the data set on AGS cells [3] (Homo sapiens, AGS, 36 µM, read-out: increase of GSH content compared to untreated controls) was 23%. Further, the GSH is reported as 16.1 ± 0.9 nmol/10^6 cells in the data set with AGS cells [3] (18 µM) and “* 16.7 ± 0.7 nmol/10^6 cells” in the data set with AGS cells [3] (36 µM). In data set [4], the “% Inhibition of the lipoperoxidation” value turned out to be 10%.
Consider `CC(C)CCC1=C(O)C(=O)C2=C(CCCC2)C1=O` [Compound 3, Dihydroprenyl-5,6,7,8-tetrahydrolapachol], for which the “IC50, inhibition of the lipoperoxidation” value in data set [5] is listed as “IC50 33.3 ± 2.3 µg/mL”. The IC50 at 24 h turned out to be 307 ± 22 µM in data set [1] and 87 ± 4 µM in data set [2]. The GSH in the data set on AGS cells [3] (11 µM) amounted to 14.3 ± 0.7 nmol/10^6 cells; with AGS cells [3] (22 µM), 13.0 ± 0.5 nmol/10^6 cells.
